Reference: patent US10759781B2, “Substituted guanidine derivatives” (UBE INDUSTRIES, LTD., priority 2015, dated 2020)

What was measured:
Rat Plasma VAP-1 = target: T1, Rat Plasma VAP-1 (Rattus norvegicus, UniProt O08590); test: (Ex vivo) rat plasma VAP-1 inhibition test after oral administration of the compound; format: in vivo; conditions: 3 hours after oral administration, SD male rats, read-out: inhibition ratio (plasma VAP-1, ex vivo)
T1 construct: from tissue; host or cells: plasma of SD male rats (7-12 weeks old) after oral dosing
T1 sequence (O08590 28-763 limits assumed): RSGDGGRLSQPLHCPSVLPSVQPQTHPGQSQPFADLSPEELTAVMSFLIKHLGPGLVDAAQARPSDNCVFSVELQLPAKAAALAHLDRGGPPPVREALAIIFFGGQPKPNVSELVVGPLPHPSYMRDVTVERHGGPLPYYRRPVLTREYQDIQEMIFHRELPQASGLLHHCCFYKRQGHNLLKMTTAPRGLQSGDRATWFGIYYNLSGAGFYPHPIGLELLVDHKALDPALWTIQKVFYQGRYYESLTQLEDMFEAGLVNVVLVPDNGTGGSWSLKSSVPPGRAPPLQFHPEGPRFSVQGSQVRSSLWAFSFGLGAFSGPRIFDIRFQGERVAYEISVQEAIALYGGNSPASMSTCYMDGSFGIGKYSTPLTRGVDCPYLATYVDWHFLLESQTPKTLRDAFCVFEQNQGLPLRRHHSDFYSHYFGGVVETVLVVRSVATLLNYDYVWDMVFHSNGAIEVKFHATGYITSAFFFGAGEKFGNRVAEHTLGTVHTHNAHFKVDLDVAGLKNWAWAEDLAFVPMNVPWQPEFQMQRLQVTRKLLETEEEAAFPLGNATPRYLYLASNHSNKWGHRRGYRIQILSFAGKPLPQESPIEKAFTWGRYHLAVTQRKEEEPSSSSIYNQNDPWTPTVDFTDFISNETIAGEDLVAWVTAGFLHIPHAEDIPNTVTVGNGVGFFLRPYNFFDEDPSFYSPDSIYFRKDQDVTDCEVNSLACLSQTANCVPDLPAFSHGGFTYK
How it was run: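 Male SD rats, 7–12 weeks, non-fasted, dosed orally at 0.3–10 mg/kg; jugular blood taken predose and 3, 8 and 24 h after dosing. Plasma incubated with 2.5 μM 14C-benzylamine for 3 h at 37 °C; extracted product counted by scintillation. Inhibition expressed relative to each animal's predose plasma activity.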

[1] = tested on: Human normal glomerular microvascular endothelial cells; format: cell-based; conditions: 2 days, 100 nM
Protocol: The Cytotoxicity Inhibition Test in Human Normal Glomerular Microvascular Endothelial Cells
(§1) Human normal glomerular microvascular endothelial cells were plated at 6000 cells/well in a collagen-coated 96-well culture plate. After one day of culture, the medium at each well was completely removed by aspiration and replaced with 50 μL of the compound solution diluted with the basal medium. The basal medium containing 0.1% DMSO was added to control wells. Following, the plate was incubated in CO2 incubator for 30 minutes. Fifty microliter of 2 mM methylamine diluted with the basal medium was added (final concentration 1 mM) to each negative control well (0% inhibition) as well as the compound-containing well, and 50 μL of the basal medium was added to each positive control well (100% inhibition). The plate was incubated in CO2 incubator for 2 days. Ten microliter of CCK-8 was added to each well and the mixtures were incubated in a plate incubator at 37° C. for approximately 2 hours after stirring with a plate shaker. The absorbance of the mixtures at 450 nm was measured with a multiplate reader. The cytotoxicity inhibition ratio of the compound was calculated from the following equation. Inhibition ratio={[Average absorbance of the compound-containing wells]−[Average absorbance of negative control wells]}/{[Average absorbance of positive control wells]−[Average absorbance of negative control wells]}×100

[2] = tested on: Human normal hepatic sinusoid-like microvascular endothelial cells; format: cell-based; conditions: 2 days, 300 nM
Protocol: The Cytotoxicity Inhibition Test in Human Normal Hepatic Sinusoid-Like Microvascular Endothelial Cells
as §1, with “hepatic sinusoid-like” for “glomerular”

in vivo = test: in vivo; set-up: species or system SD rats; conditions: SD, rat, po, 3 mg/kg
Protocol: Rat Pharmacokinetic (PK) Study (Concentration of Compound in Plasma after Oral Administration)
Seven to eight week old SD rats (weighing 180 to 250 g) were orally administered with a suspension of the compound in 0.5 W/V % methylcellulose 400 solution. Under anesthesia, the blood was collected from the jugular vein in EDTA tubes at 0.25, 0.5, 1, 2, 4, 6, 8 and 24 hours after the administration of the compound. The blood was centrifuged at 4° C. and 6000 g for 3 minutes to give plasma. Acetonitrile was added to the plasma, and the mixture was stirred with a shaker at 750 rpm for 3 minutes and was deproteinized by centrifugation at 3700 rpm for 2 minutes. Thus, the obtained sample was analyzed by LC/MS under the following conditions.
The concentration of the compound in the plasma at each blood sampling time was determined by an internal standard method, and AUC all (Area Under Curve) was calculated by a trapezoidal method.
The following LC and MS systems were used for measurement.
LC: CBM 30 series manufactured by Shimadzu Corporation
Column: Phenomenex Kinetex C18 (50×2.1 mm, 2.6 μm)
Column temperature: 40° C.
Mobile phase A: 0.1% aqueous formic acid solution, mobile phase B: 0.1% formic acid,
50% acetonitrile/methanol mixture
MS: 3200 manufactured by SCIEX

CON=C1CN(c2ncc(-c3cccc(COC(=O)NC(=N)N)c3F)cn2)C1 [Example 1, 2-Fluoro-3-{2-[3-(methoxyimino)azetidin-1-yl]pyrimidin-5-yl}benzyl carbamimidoylcarbamate]
inhibition in vivo at 0.3 mg/kg (Rat Plasma VAP-1): ≥ 50% | cytotoxicity inhibition ratio [1]: ≥ 50% | cytotoxicity inhibition ratio [2]: ≥ 50% | AUC (in vivo): ≥ 1000 ng·h/mL
